Laboratory results published in the C3SDB collision cross section collection.
“And” between values parts separate entries of the source, which are not always exact repeats. Equal entries are not always repeated.

Conditions: instrument: DT, single field, calibrated with Agilent tune mix (Agilent)

SMILES | collision cross section (N2) ([M+H]+) | collision cross section (N2) ([M-H]-) | also measured
O=C(O)/C=C/c1ccccc1O [trans-2-Hydroxycinnamic acid] |  |  | collision cross section (N2) ([M+H-H2O]+): 124.1 Å²
Nc1ncnc2c1ncn2[C@@H]1O[C@@H]2COP(=O)(O)O[C@H]2[C@H]1O [Adenosine 3',5'-cyclic phosphate] | 176.8 Å² |  | 
CCCCCCCCCCCCCC(=O)O [Myristic acid] |  | 159.21 Å² | 
O=C([O-])[C@H](O)[C@@H](O)[C@H](O)[C@H](O)CO [D-gluconate] |  |  | collision cross section (N2) ([M+Na]+): 145.8 Å²
O=c1ccn([C@@H]2O[C@H](COP(=O)(O)O)[C@@H](O)[C@H]2O)c(=O)[nH]1 [Uridine 5'-monophosphate] |  |  | collision cross section (N2) ([M+Na]+): 171.8 Å²
C[C@]12CC[C@@H](O)C[C@@H]1CC[C@@H]1[C@@H]2CC[C@]2(C)C(=O)CC[C@@H]12 [Androsterone] |  |  | collision cross section (N2) ([M+H-H2O]+): 166.6 Å²
C[C@H](CCC(=O)O)[C@H]1CC[C@H]2[C@@H]3[C@H](O)C[C@@H]4C[C@H](O)CC[C@]4(C)[C@H]3C[C@H](O)[C@]12C [Cholic acid] |  | 200.72 Å² | collision cross section (N2) ([M+Na]+): 197.3 Å²
COc1cc(/C=C/C(=O)CC(=O)/C=C/c2ccc(O)c(OC)c2)ccc1O [Curcumin] | 201.6 Å² |  | collision cross section (N2) ([M+Na-2H]-): 178.82 Å²
CC(C)=CCC[C@@H](C)[C@H]1CC[C@@]2(C)C3=C(CC[C@]12C)[C@@]1(C)CC[C@H](O)C(C)(C)[C@@H]1CC3 [Lanosterol] |  |  | collision cross section (N2) ([M+H-H2O]+): 207.3 Å²
COc1ccc2[nH]cc(CCN(C)C)c2c1 [5-Methoxydimethyltryptamine] | 151.5 Å² | 153.76 Å² | 
Nc1nc(=O)c2ncn([C@H]3C[C@H](O)[C@@H](COP(=O)(O)OP(=O)(O)O)O3)c2[nH]1 [2'-Deoxyguanosine 5'-diphosphate] |  |  | collision cross section (N2) ([M-H2O-H]-): 174.28 Å²
NC(CCCC(N)C(=O)O)C(=O)O (configuration not stated) [Diaminopimelic acid] | 140.8 Å² | 134.28 Å² | 
O=C(O)Cc1cnc[nH]1 [Imidazoleacetic acid] | 123.1 Å² |  | 
Cc1cc2nc3c(=O)[nH]c(=O)nc-3n(C[C@H](O)[C@H](O)[C@H](O)COP(=O)(O)O)c2cc1C [Flavin mononucleotide] | 199.1 Å² | 194.92 Å² | 
O=C(O)CCc1ccccc1 [3-Phenylpropanoic acid] |  | 135.74 Å² | 
C=C1CC[C@H](O)C/C1=C/C=C1\CCC[C@]2(C)[C@@H]([C@H](C)/C=C/[C@H](C)C(C)C)CC[C@@H]12 [Ergocalciferol] | 202.4 Å² and 203.2 Å² |  | 
CCCCCCCCCCCCCCCC(=O)O[C@H](CC(=O)[O-])C[N+](C)(C)C [L-Palmitoylcarnitine] | 214 Å² | 204.49 Å² | 
OC[C@H]1O[C@H](O[C@H]2O[C@H](CO)[C@@H](O)[C@H](O)[C@H]2O)[C@H](O)[C@@H](O)[C@@H]1O [Trehalose] |  |  | collision cross section (N2) ([M+Na]+): 174.9 Å²
C[C@]12CC[C@@H]3c4ccc(O)cc4CC[C@H]3[C@@H]1CC[C@@H]2O [beta-Estradiol] |  |  | collision cross section (N2) ([M+H-H2O]+): 159.7 Å²
C[C@]12CC[C@@H]3c4ccc(O[C@@H]5O[C@H](C(=O)O)[C@@H](O)[C@H](O)[C@H]5O)cc4CC[C@H]3[C@@H]1CCC2=O [Estrone-3-glucuronide] |  | 215.74 Å² | 
C[C@]12CCC(=O)C=C1CC[C@@H]1[C@@H]2CC[C@@]2(C)[C@H]1CC[C@]2(O)C(=O)CO [Cortexolone] | 187.4 Å² |  | 
OC[C@H]1O[C@H](O)[C@H](O)[C@@H](O)[C@@H]1O [Alpha-D-Glucose] |  |  | collision cross section (N2) ([M+Na]+): 146.2 Å²
Cc1cn([C@H]2C[C@H](O)[C@@H](COP(=O)(O)OP(=O)(O)O)O2)c(=O)[nH]c1=O [Deoxythymidine 5'-diphosphate] |  | 172.11 Å² | collision cross section (N2) ([M+Na]+): 177.6 Å²
OC1OC[C@@H](O)[C@@H](O)[C@H]1O (stereo partly drawn) [D-Ribose] |  |  | collision cross section (N2) ([M+Na]+): 135.3 Å²
CC(C)(COP(=O)(O)OP(=O)(O)OC[C@H]1O[C@@H](n2cnc3c(N)ncnc32)[C@H](O)[C@@H]1OP(=O)(O)O)[C@@H](O)C(=O)NCCC(=O)NCCS [Coenzyme A] | 240.4 Å² | 241.54 Å² | 
C[C@]12CC[C@H](O)CC1=CC[C@@H]1[C@@H]2CC[C@]2(C)C(=O)CC[C@@H]12 [trans-Dehydroandrosterone] |  | 175.34 Å² | collision cross section (N2) ([M+H-H2O]+): 166 Å²
C=CC1=C(C)/C(=C/c2[nH]c(Cc3[nH]c(/C=C4\NC(=O)C(C)=C4C=C)c(C)c3CCC(=O)O)c(CCC(=O)O)c2C)NC1=O [Bilirubin] |  | 247.18 Å² | 
CCCCCCCCCC(=O)SCCNC(=O)CCNC(=O)[C@H](O)C(C)(C)COP(=O)(O)OP(=O)(O)OC[C@H]1O[C@@H](n2cnc3c(N)ncnc32)[C@H](O)[C@@H]1OP(=O)(O)O [Decanoyl-CoA] | 277 Å² | 276 Å² | 
CCCCCCCCCCCC(=O)O [Dodecanoic acid] |  | 152.58 Å² | 
O=P(O)(O)OC[C@H]1O[C@H](OP(=O)(O)O)[C@H](O)[C@@H](O)[C@@H]1O [Alpha-D-Glucose 1,6-bisphosphate] |  |  | collision cross section (N2) ([M+Na-2H]-): 159.11 Å²

More lines, main results first:

collision cross section (N2) ([M+H]+) | collision cross section (N2) ([M-H]-) | SMILES | also measured
 | 134.09 Å² | CSCC[C@H](NC=O)C(=O)O [N-Formylmethionine] | 
 | 131.99 Å² | NC[C@H](O)c1ccc(O)c(O)c1 [Norepinephrine] | collision cross section (N2) ([M+H-H2O]+): 137.3 Å² and 136.8 Å²
165.1 Å² |  | CSCC[C@H](NC(=O)CC[C@H](N)C(=O)O)C(=O)O [gamma-Glutamylmethionine] | 
 | 204.62 Å² | C[C@H](CCC(=O)NCCS(=O)(=O)O)[C@H]1CC[C@H]2[C@@H]3CC[C@@H]4C[C@H](O)CC[C@]4(C)[C@H]3CC[C@]12C [Taurolithocholic acid] | collision cross section (N2) ([M+H-H2O]+): 220.6 Å²
 | 144.2 Å² | CC(=O)N[C@@H](Cc1ccccc1)C(=O)O [N-Acetyl-L-phenylalanine] | collision cross section (N2) ([M+Na]+): 149.8 Å²
165.2 Å² |  | NC(=O)c1ccc[n+]([C@@H]2O[C@H](COP(=O)([O-])O)[C@@H](O)[C@H]2O)c1 [Nicotinamide ribotide] | 
162.5 Å² |  | CSC[C@H]1O[C@@H](n2cnc3c(N)ncnc32)[C@H](O)[C@@H]1O [S-Methyl-5'-thioadenosine] | 
148.1 Å² |  | CC(C)(CO)[C@@H](O)C(=O)NCCC(=O)O [Pantothenate] | 
 | 159.67 Å² | CNc1ncnc2c1ncn2[C@@H]1O[C@H](CO)[C@@H](O)[C@H]1O [N6-methyladenosine] | collision cross section (N2) ([M+Na]+): 170.4 Å²
 | 228.27 Å² | NC(=O)c1ccc[n+]([C@@H]2O[C@H](COP(=O)(O)OP(=O)(O)OC[C@H]3O[C@@H](n4cnc5c(N)ncnc54)[C@H](OP(=O)(O)O)[C@@H]3O)[C@@H](O)[C@H]2O)c1 [Nicotinamide adenine dinucleotide phosphate] | 
152.8 Å² |  | C[C@H](O)C(=O)C1=Nc2c([nH]c(N)nc2=O)NC1 [Sepiapterin] | collision cross section (N2) ([M-H2O-H]-): 144.47 Å²
131.9 Å² |  | NCCCCNCCCN [Spermidine] | 
